US8338565B2, “Macrocyclic compounds for inhibition of tumor necrosis factor alpha” (Ensemble Therapeutics Corporation, priority 2008, dated 2012)
Numbered stars: 1 amine (or outer) side, 2 acyl side, 3 side chain; on linkers, the order of the positions; unused ones are H or OH. Bridge positions count the residues as written; N and C are the ends. Square brackets hold non-standard residues; d marks the D form. Peptide text beside a SMILES is read from it. * marks the point of attachment. Tartaroyl(2R,3R-(OAc)2) = CC(=O)O[C@@H](C(=O)[*:1])[C@@H](OC(C)=O)C(=O)[*:2]; Phe(3,4-(OMe)2) = COc1ccc(C[C@H](N)C(=O)O)cc1OC; Phe(4-CF3) = N[C@@H](Cc1ccc(C(F)(F)F)cc1)C(=O)O; dPhe(3-CF3) = N[C@H](Cc1cccc(C(F)(F)F)c1)C(=O)O; dPhe(2-CF3) = N[C@H](Cc1ccccc1C(F)(F)F)C(=O)O; Bip = N[C@@H](Cc1ccc(-c2ccccc2)cc1)C(=O)O; dBip = N[C@H](Cc1ccc(-c2ccccc2)cc1)C(=O)O; dPhe(4-NH2) = Nc1ccc(C[C@@H](N)C(=O)O)cc1; Phe(4-Br) = N[C@@H](Cc1ccc(Br)cc1)C(=O)O; dPhe(2-CN) = N#Cc1ccccc1C[C@@H](N)C(=O)O; Phe(4-NH2) = Nc1ccc(C[C@H](N)C(=O)O)cc1; Phe(4-Me) = Cc1ccc(C[C@H](N)C(=O)O)cc1; dPhe(2-Me) = Cc1ccccc1C[C@@H](N)C(=O)O; d(hPhe) = N[C@H](CCc1ccccc1)C(=O)O; d2Thi = N[C@H](Cc1cccs1)C(=O)O; d3Thi = N[C@H](Cc1ccsc1)C(=O)O; Suc = O=C(CCC(=O)[*:2])[*:1]; Bn = c1ccc(C*)cc1; βAla = NCCC(=O)O

Target: T1, TNFα / TNFα receptor (TNFα R1/Fc) (Homo sapiens, UniProt P01375)
T1 construct: purchased R&D Systems
T1 sequence (P01375 77-233 limits assumed, species assumed): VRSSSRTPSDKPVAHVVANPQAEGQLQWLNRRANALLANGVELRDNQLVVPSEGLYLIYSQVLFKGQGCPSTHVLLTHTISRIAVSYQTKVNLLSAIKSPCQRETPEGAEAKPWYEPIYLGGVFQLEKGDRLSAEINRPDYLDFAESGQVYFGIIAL
Experiment: Inhibition of binding of TNFα to the TNFα receptor (plate ELISA competition)
Conditions: Table 2; read-out: Activity (IC50, inhibition of TNFα binding to TNFα R1/Fc)
Summary of the method: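 Plates were coated with TNFα at 15 nM. Test compound and 8.33 nM receptor-Fc (PBST, 2% DMSO) were first mixed in solution for 30 min at room temperature, then transferred to the plates for another 30 min. Competition was read by absorbance at 450 nm after HRP anti-human IgG Fc detection with TMB.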

SMILES | IC50
COc1ccc(C[C@@H]2NC(=O)[C@@H](Cc3cccs3)NC(=O)CCC(=O)Nc3ccc(cc3)C[C@@H](C(=O)O)NC(=O)[C@@H](Cc3ccccc3)NC2=O)cc1OC [Compound 93] ([d2Thi][Phe(3,4-(OMe)2)][dF][Phe(4-NH2)]-OH; linker N-4 via Suc) | > 100 µM
O=C1CCC(=O)N[C@H](Cc2cccs2)C(=O)N[C@@H](Cc2ccc(-c3ccccc3)cc2)C(=O)N[C@H](Cc2cccc(C(F)(F)F)c2)C(=O)N[C@H](C(=O)O)Cc2ccc(cc2)N1 [Compound 78] ([d2Thi][Bip][dPhe(3-CF3)][Phe(4-NH2)]-OH; linker N-4 via Suc) | > 100 µM
COc1cccc(C[C@@H]2NC(=O)[C@H](Cc3cccs3)NC(=O)COc3ccc(cc3)C[C@@H](C(=O)O)NC(=O)[C@H](Cc3ccccc3)NC2=O)c1 [Compound 408] | > 100 µM
O=C1COc2ccc(cc2)C[C@@H](C(=O)O)NC(=O)[C@H](Cc2ccccc2)NC(=O)[C@H](Cc2ccc(-c3ccc(C(=O)O)cc3)cc2)NC(=O)[C@H](Cc2cccs2)N1 [Compound 361] | > 100 µM
O=C1COc2ccc(cc2)C[C@@H](C(=O)N[C@@H](Cc2ccc(O)cc2)C(=O)O)NC(=O)[C@H](Cc2ccccc2)NC(=O)[C@@H](Cc2ccc(-c3ccccc3)cc2)NC(=O)[C@H](Cc2cccs2)N1 [Compound 387] | > 100 µM
O=C1CCC(=O)N[C@H](Cc2cccs2)C(=O)N[C@@H](Cc2ccc(-c3ccccc3)cc2)C(=O)N[C@@H](Cc2ccccc2)C(=O)N[C@H](C(=O)O)Cc2ccc(cc2)N1 [Compound 195] ([d2Thi][Bip]F[Phe(4-NH2)]-OH; linker N-4 via Suc) | > 100 µM
O=C1CCC(=O)N[C@H](Cc2cccs2)C(=O)N[C@@H](Cc2ccc(-c3ccccc3)cc2)C(=O)N[C@H](Cc2ccccc2)C(=O)N[C@H](C(=O)N2CCC[C@H]2C(=O)O)Cc2ccc(cc2)N1 [Compound 199] ([d2Thi][Bip][dF][Phe(4-NH2)]P-OH; linker N-4 via Suc) | > 100 µM
O=C1CCC(=O)N[C@H](Cc2ccccc2)C(=O)N[C@@H](Cc2ccc(-c3ccccc3)cc2)C(=O)N[C@H](CCc2ccccc2)C(=O)N[C@H](C(=O)N[C@@H](Cc2ccccc2)C(=O)O)Cc2ccc(cc2)N1 [Compound 456] ([dF][Bip][d(hPhe)][Phe(4-NH2)]F-OH; linker N-4 via Suc) | > 100 µM
CC(=O)O[C@H]1C(=O)Nc2ccc(cc2)C[C@H](C(=O)O)NC(=O)[C@@H](Cc2ccccc2)NC(=O)[C@H](Cc2ccc(Br)cc2)NC(=O)[C@@H](Cc2ccccc2)NC(=O)[C@@H]1OC(C)=O [Compound 231] ([dF][Phe(4-Br)][dF][dPhe(4-NH2)]-OH; linker N-4 via Tartaroyl(2R,3R-(OAc)2)) | > 100 µM
N#Cc1ccccc1C[C@H]1NC(=O)[C@H](Cc2ccc(C(F)(F)F)cc2)NC(=O)[C@@H](CCc2ccccc2)NC(=O)CCC(=O)Nc2ccc(cc2)C[C@@H](C(=O)O)NC1=O [Compound 225] ([d(hPhe)][Phe(4-CF3)][dPhe(2-CN)][Phe(4-NH2)]-OH; linker N-4 via Suc) | > 100 µM
O=C1CCC(=O)N[C@H](Cc2cccs2)C(=O)N[C@H](Cc2ccc(-c3ccccc3)cc2)C(=O)N[C@@H](Cc2ccccc2)C(=O)N[C@H](C(=O)O)Cc2ccc(cc2)N1 [Compound 496] ([d2Thi][dBip]F[Phe(4-NH2)]-OH; linker N-4 via Suc) | > 100 µM
O=C1COc2ccc(cc2)C[C@@H](C(=O)O)NC(=O)[C@@H](Cc2cccs2)NC(=O)[C@H](Cc2ccc(-c3ccccc3)cc2)NC(=O)[C@@H](Cc2cccs2)N1 [Compound 538] | > 100 µM
O=C(O)CCNC(=O)[C@@H]1Cc2ccc(cc2)NC(=O)CCC(=O)N[C@H](Cc2ccccc2)C(=O)N[C@@H](Cc2ccc(-c3ccccc3)cc2)C(=O)N[C@H](CCc2ccccc2)C(=O)N1 [Compound 459] ([dF][Bip][d(hPhe)][Phe(4-NH2)][βAla]-OH; linker N-4 via Suc) | > 100 µM
O=C1CN(Cc2ccccc2)C(=O)[C@H](Cc2ccc(-c3ccccc3)cc2)NC(=O)[C@H](Cc2cccs2)NC(=O)COc2ccc(cc2)C[C@@H](C(=O)O)N1 [Compound 257] | > 100 µM
O=C1CCC(=O)N[C@H](Cc2cccs2)C(=O)N[C@@H](Cc2ccc(-c3ccccc3)cc2)C(=O)N[C@H](CO)C(=O)N[C@H](C(=O)O)Cc2ccc(cc2)N1 [Compound 61] ([d2Thi][Bip][dS][Phe(4-NH2)]-OH; linker N-4 via Suc) | > 100 µM
COc1ccc(C[C@@H]2NC(=O)[C@H](Cc3cccs3)NC(=O)COc3ccc(cc3)C[C@@H](C(=O)O)NC(=O)[C@H](Cc3ccccc3)NC2=O)cc1OC [Compound 406] | > 100 µM
COc1ccc(C[C@H]2NC(=O)[C@H](Cc3ccc(-c4ccccc4)cc3)NC(=O)[C@@H](Cc3cccs3)NC(=O)COc3ccc(cc3)C[C@@H](C(=O)O)NC2=O)cc1 [Compound 535] | > 100 µM
O=C(O)[C@@H]1Cc2ccc(cc2)NC(=O)[C@H](O)[C@@H](O)C(=O)N[C@H](Cc2cccs2)C(=O)N[C@@H](Cc2ccc(-c3ccccc3)cc2)C(=O)N[C@H](Cc2ccc(F)cc2)C(=O)N1 [Compound 288] | > 100 µM
Cc1ccc(C[C@@H]2NC(=O)[C@@H](Cc3cccs3)NC(=O)CCC(=O)Nc3ccc(cc3)C[C@@H](C(=O)O)NC(=O)[C@@H](Cc3ccccc3)NC2=O)cc1 [Compound 103] ([d2Thi][Phe(4-Me)][dF][Phe(4-NH2)]-OH; linker N-4 via Suc) | > 100 µM
Cc1ccccc1C[C@H]1NC(=O)[C@H](Cc2ccc(-c3ccccc3)cc2)NC(=O)[C@@H](Cc2cccs2)NC(=O)CCC(=O)Nc2ccc(cc2)C[C@@H](C(=O)O)NC1=O [Compound 80] ([d2Thi][Bip][dPhe(2-Me)][Phe(4-NH2)]-OH; linker N-4 via Suc) | > 100 µM
O=C1CCNc2ccc(cc2)C[C@@H](C(=O)O)NC(=O)[C@@H](Cc2ccccc2)NC(=O)[C@H](Cc2ccc(-c3ccccc3)cc2)NC(=O)[C@@H](Cc2cccs2)N1 [Compound 6] | > 100 µM
O=C1COc2ccc(cc2)C[C@@H](C(=O)O)NC(=O)[C@@H]2CCCN2C(=O)[C@@H](Cc2ccc(-c3ccccc3)cc2)NC(=O)[C@H](Cc2cccs2)N1 [Compound 250] | > 100 µM

Now from value to compound:

IC50 | SMILES
< 10 µM | O=C1COc2ccc(cc2)C[C@@H](C(=O)O)NC(=O)[C@H](CCc2ccccc2)NC(=O)[C@@H](Cc2ccc(-c3ccccc3)cc2)NC(=O)[C@H](Cc2cn(-c3ccccc3)nn2)N1 [Compound 693]
< 10 µM | O=C1COc2ccc(cc2)C[C@@H](C(=O)O)NC(=O)[C@H](Cc2ccccc2F)NC(=O)[C@@H](Cc2ccc(-c3ccccc3)cc2)NC(=O)[C@H](Cc2cccs2)N1 [Compound 625]
< 10 µM | COc1ccc(C[C@@H]2NC(=O)[C@@H](Cc3ccc(-c4ccccc4)cc3)NC(=O)[C@H](Cc3ccncc3)NC(=O)COc3ccc(cc3)C[C@@H](C(=O)O)NC2=O)cc1 [Compound 639]
< 10 µM | O=C1COc2ccc(cc2)C[C@@H](C(=O)O)NC(=O)[C@H](Cc2ccc(Cl)cc2Cl)NC(=O)[C@@H](Cc2ccc(-c3ccccc3)cc2)NC(=O)[C@H](Cc2ccncc2)N1 [Compound 650]
< 10 µM | O=C1COc2ccc(cc2)C[C@@H](C(=O)O)NC(=O)[C@H](Cc2c[nH]c3ccccc23)NC(=O)[C@@H](Cc2ccc(-c3ccccc3)cc2)NC(=O)[C@H](Cc2ccncc2)N1 [Compound 653]
< 10 µM | O=C(O)CCCNC(=O)[C@@H]1Cc2ccc(cc2)OCC(=O)N[C@@H](Cc2ccncc2)C(=O)N[C@H](Cc2ccc(-c3ccccc3)cc2)C(=O)N[C@@H](Cc2ccccc2F)C(=O)N1 [Compound 719]
30 to 100 µM | O=C1N[C@H](Cc2ccccc2)C(=O)N[C@@H](C(=O)O)Cc2ccc(cc2)NC(=O)[C@H](O)[C@@H](O)C(=O)N[C@H](Cc2cccs2)C(=O)N[C@H]1Cc1ccc(Br)cc1 [Compound 242]
30 to 100 µM | O=C1N[C@H](Cc2ccccc2)C(=O)N[C@@H](C(=O)O)Cc2ccc(cc2)NC(=O)[C@H](O)[C@@H](O)C(=O)N[C@H](Cc2cccs2)C(=O)N[C@H]1Cc1ccc(Cl)cc1Cl [Compound 244]
10 to 30 µM | CC(C)(C)OC(=O)CC[C@@H]1NC(=O)[C@@H](Cc2ccc(-c3ccccc3)cc2)NC(=O)[C@H](Cc2cccs2)NC(=O)COc2ccc(cc2)C[C@@H](C(=O)O)NC1=O [Compound 349]
10 to 30 µM | CC(=O)N[C@@H]1CC(=O)N[C@H](Cc2cccs2)C(=O)N[C@@H](Cc2ccc(-c3ccccc3)cc2)C(=O)N[C@H](Cc2ccccc2)C(=O)N[C@H](C(=O)O)Cc2ccc(cc2)NC1=O [Compound 378]
10 to 30 µM | O=C1COc2ccc(cc2)C[C@@H](C(=O)N[C@@H](Cc2ccccc2)C(=O)O)NC(=O)[C@H](Cc2ccccc2)NC(=O)[C@@H](Cc2ccc(-c3ccccc3)cc2)NC(=O)[C@H](Cc2cccs2)N1 [Compound 230]
10 to 30 µM | O=C1COc2ccc(cc2)C[C@@H](C(=O)O)NC(=O)[C@@H](CCc2ccccc2)NC(=O)[C@H](Cc2ccc(-c3ccccc3)cc2)NC(=O)[C@@H](Cc2cccs2)N1 [Compound 145]
30 to 100 µM | O=C1CCC(=O)N[C@H](Cc2ccccc2C(F)(F)F)C(=O)N[C@@H](Cc2ccc(C(F)(F)F)cc2)C(=O)N[C@H](Cc2ccccc2)C(=O)N[C@H](C(=O)O)Cc2ccc(cc2)N1 [Compound 163] ([dPhe(2-CF3)][Phe(4-CF3)][dF][Phe(4-NH2)]-OH; linker N-4 via Suc)
30 to 100 µM | O=C1CCC(=O)N[C@H](Cc2cccs2)C(=O)N[C@@H](Cc2ccc(-c3ccccc3)cc2)C(=O)N[C@H](Cc2ccsc2)C(=O)N[C@H](C(=O)O)Cc2ccc(cc2)N1 [Compound 75] ([d2Thi][Bip][d3Thi][Phe(4-NH2)]-OH; linker N-4 via Suc)
10 to 30 µM | O=C(O)[C@@H]1Cc2ccc(cc2)NC(=O)[C@H](O)[C@@H](O)C(=O)N[C@H](Cc2ccccc2)C(=O)N[C@@H](Cc2ccc(-c3ccccc3)cc2)C(=O)N[C@H](CCc2ccccc2)C(=O)N1 [Compound 245]
30 to 100 µM | O=C1CCC(=O)N[C@H](COCc2ccccc2)C(=O)N[C@@H](Cc2ccc(C(F)(F)F)cc2)C(=O)N[C@H](Cc2ccccc2)C(=O)N[C@H](C(=O)O)Cc2ccc(cc2)N1 [Compound 137] ([dS](Bn)[Phe(4-CF3)][dF][Phe(4-NH2)]-OH; linker N-4 via Suc)
